Measured values from patent publication US11076595B2, “1-(n,n-disubstituted carbamoyl) 4-(substituted sulfonyl)triazolin-5-one derivative, 4-(n,n-disubstituted carbamoyl) 1-(substituted sulfonyl)triazolin-5-one derivative, and herbicide containing said derivative as active ingredient” (HOKKO CHEMICAL INDUSTRY CO., LTD., priority 2017, dated 2021).

Assays:
Format in all cases: in vivo
Echinochloa crus-galli [1] = experiment: Test Example 2: herbicidal effect test by treatment during growing period in paddy field; conditions: treatment 7 days after sowing, 120 g/10a, evaluated 14 days after treatment
Summary of the method: (§1)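 Read-out is weed suppression (%), 1 − mean dry weight treated/untreated ×100, taken 14 days after treatment with duplicate plots. Treatment: water-diluted emulsifiable concentrate added dropwise to flooded paddy-soil pots 7 days post-sowing at 120 g active ingredient per 10 are.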

Monochoria vaginalis [2] = experiment: as above; conditions: treatment 7 days after sowing, 120 g/10a, evaluated 14 days after treatment
Summary of the method: as §1

Lindernia pyxidaria [3] = experiment: as above; conditions: treatment 7 days after sowing, 120 g/10a, evaluated 14 days after treatment
Summary of the method: as §1

Scirpus juncoides [4] = experiment: as above; conditions: treatment 7 days after sowing, 120 g/10a, evaluated 14 days after treatment
Summary of the method: as §1

crabgrass [5] = experiment: Test Example 3: herbicidal effect test by soil treatment in upland field; conditions: upland field soil treatment 1 day after sowing; 120 g/10a; evaluated 14 days after treatment
Summary of the method: (§2)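 Pre-emergence soil spray applied one day after sowing 20 seeds of each weed into surface soil, dosed at 120 g a.i. per 10 are in 100 L water per 10 are. After 14 days, plants weighed dry; suppression (%) calculated against untreated plots, duplicate plots per concentration.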

Echinochloa crus-galli [6] = experiment: as above; conditions: upland field soil treatment 1 day after sowing; 120 g/10a; evaluated 14 days after treatment
Summary of the method: as §2

Chenopodium album [7] = experiment: as above; conditions: upland field soil treatment 1 day after sowing; 120 g/10a; evaluated 14 days after treatment
Summary of the method: as §2

Amaranthus viridis [8] = experiment: as above; conditions: upland field soil treatment 1 day after sowing; 120 g/10a; evaluated 14 days after treatment
Summary of the method: as §2

Echinochloa crus-galli [9] = experiment: Test Example 1: herbicidal effect test by soil treatment in paddy field; conditions: 120 g/10a, paddy soil treatment just after sowing, 14 days after treatment
Summary of the method: (§3)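 Seeds (30 per species) are sown 0–1 cm deep in puddled, fertilized paddy soil, then flooded to about 3 cm. Water-diluted emulsifiable concentrate is dripped in at once, giving 120 g active ingredient per 10 are. Plants grow 14 days in a glass greenhouse before dry weights are compared with untreated.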

Monochoria vaginalis [10] = experiment: as above; conditions: 120 g/10a, paddy soil treatment just after sowing, 14 days after treatment
Summary of the method: as §3

Lindernia pyxidaria [11] = experiment: as above; conditions: 120 g/10a, paddy soil treatment just after sowing, 14 days after treatment
Summary of the method: as §3

Scirpus juncoides [12] = experiment: as above; conditions: 120 g/10a, paddy soil treatment just after sowing, 14 days after treatment
Summary of the method: as §3

crabgrass [13] = experiment: Test Example 4: herbicidal effect test by foliage treatment in upland field; conditions: upland field foliage treatment 7 days after sowing; 120 g/10a; evaluated 14 days after treatment
Summary of the method: (§4)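 Suppression rate (%) derives from mean plant dry weight in treated versus untreated plots, measured 14 days after spraying, with two replications per plot. The emulsifiable concentrate was applied 7 days after sowing at 120 g active ingredient per 10 are.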

Echinochloa crus-galli [14] = experiment: as above; conditions: upland field foliage treatment 7 days after sowing; 120 g/10a; evaluated 14 days after treatment
Summary of the method: as §4

Chenopodium album [15] = experiment: as above; conditions: upland field foliage treatment 7 days after sowing; 120 g/10a; evaluated 14 days after treatment
Summary of the method: as §4

Amaranthus viridis [16] = experiment: as above; conditions: upland field foliage treatment 7 days after sowing; 120 g/10a; evaluated 14 days after treatment
Summary of the method: as §4

SMILES	weed suppression rate, Echinochloa crus-galli (Echinochloa crus-galli [1])	weed suppression rate, Monochoria vaginalis (Monochoria vaginalis [2])	weed suppression rate, Lindemia pyxidaria (Lindernia pyxidaria [3])	weed suppression rate, Scirpus juncoides (Scirpus juncoides [4])	herbicidal effect (weed suppression rate), Crabgrass (crabgrass [5])	herbicidal effect (weed suppression rate), Echinochloa crus-galli (Echinochloa crus-galli [6])	herbicidal effect (weed suppression rate), Chenopodium album (Chenopodium album [7])	herbicidal effect (weed suppression rate), Amaranthus viridis (Amaranthus viridis [8])	weed suppression rate, Echinochloa crus-galli (Echinochloa crus-galli [9])	weed suppression rate, Monochoria vaginalis (Monochoria vaginalis [10])	weed suppression rate, Lindemia pyxidaria (Lindernia pyxidaria [11])	weed suppression rate, Scirpus juncoides (Scirpus juncoides [12])	herbicidal effect (weed suppression rate), Crabgrass (crabgrass [13])	herbicidal effect (weed suppression rate), Echinochloa crus-galli (Echinochloa crus-galli [14])	herbicidal effect (weed suppression rate), Chenopodium album (Chenopodium album [15])	herbicidal effect (weed suppression rate), Amaranthus viridis (Amaranthus viridis [16])
CC(C)N(C(=O)n1ncn(S(=O)(=O)C2CCCCC2)c1=O)c1ccccc1 [Compound 1-295]	90%	80%	80%	90%	90%	80%	80%	90%	90%	80%	80%	90%	90%	80%	80%	90%
CC(C)N(C(=O)n1ncn(S(=O)(=O)C2CCCCC2)c1=O)c1ccc(F)cc1Cl [Compound 1-313]	90%	80%	80%	90%	90%	80%	80%	90%	90%	80%	80%	90%	90%	80%	80%	90%
CC(C)N(C(=O)n1ncn(S(=O)(=O)C2CC2)c1=O)c1ccc(Cl)cc1F [Compound 1-215]	100%	100%	100%	100%	80%	80%	80%	80%	100%	100%	100%	100%	90%	90%	60%	60%
CC(C)N(C(=O)n1ncn(S(=O)(=O)C2CCCC2)c1=O)c1ccc(F)cc1F [Compound 1-284]	90%	90%	90%	90%	90%	90%	90%	60%	100%	100%	100%	100%	90%	80%	80%	90%
Cc1cc(C)c(S(=O)(=O)n2cnn(C(=O)N(c3ccc(F)c(F)c3F)C(C)C)c2=O)c(C)c1 [Compound 1-899]	100%	100%	80%	100%	80%	80%	60%	90%	100%	90%	100%	100%	100%	100%	80%	100%
CC(C)N(C(=O)n1ncn(S(=O)(=O)C2CC2)c1=O)c1ccc(Cl)nc1Cl [Compound 1-249]	100%	90%	90%	90%	90%	80%	80%	90%	100%	90%	90%	90%	90%	80%	80%	90%
CC(C)N(C(=O)n1ncn(S(=O)(=O)C2CCC2)c1=O)c1ccc(F)cc1F [Compound 1-269]	100%	90%	100%	90%	90%	90%	90%	90%	100%	100%	100%	90%	90%	80%	80%	90%
CC(C)N(C(=O)n1ncn(S(=O)(=O)C(C)C)c1=O)c1ccc(F)cc1F [Compound 1-65]	100%	90%	90%	90%	100%	100%	90%	80%	100%	100%	100%	100%	90%	80%	80%	90%
